Earlier results, collected in patent US20190263927A1, “COMBINATION OF A PD-1 ANTAGONIST AND ERIBULIN FOR TREATING UROTHELIAL CANCER” (Merck Sharp & Dohme Corp., priority 2016, published 2019).

Tested on: patients with metastatic UC (mUC)
Details: eribulin monotherapy; patients with metastatic/advanced UC; NCI Protocol No. 7435

In the case of `C=C1C[C@@H]2CC[C@@]34C[C@H]5O[C@H]6[C@@H](O3)[C@H]3O[C@H](CC[C@@H]3O[C@H]6[C@H]5O4)CC(=O)C[C@@H]3[C@@H](OC)[C@@H](C[C@H](O)CN)O[C@H]3C[C@H]3O[C@@H](CC[C@@H]1O2)C[C@@H](C)C3=C` [Eribulin], the “clinical benefit for treatment of patients with mUC” value is given as “provide clinical benefit”.
